Data reported in patent US6492337B1, “Galactosylceramide, glucosylceramide, lactosylceramide, and specific catchers therefor for use in the prophylaxis or therapy of prediabetes, diabetes and/or associated complication” (A+ Science AB, priority 1997, dated 2002).

What was measured:
[1] = test system: NOD mouse model of type 1 diabetes; test: Intrathymic injection in NOD mice, later diabetes incidence; format: in vivo
Experimental: The NOD mouse model is an animal model of type 1 diabetes. The mice develop spontaneously diabetes within 200 days of life with an incidence of 50% or more. In the present study the animals were examined daily and once a week checked for glucosuria. They were diagnosed as diabetic if their blood glucose values was higher than 200 mg glucose per 100 ml. When diagnosed as diabetics the animals were sacrificed. Otherwise the remaining non-diabetic animals were sacrificed at the end 5 of the study after 200 days of age.
Four groups of animals each containing between 30 and 40 animals were investigated: The animals were injected intrathymically when 3 weeks old. There was injected […] galactosylceramide in 100 μl vehicle (PBS). The control mice were treated with the 100 μl PBS alone. In another experiment liposome preparation of galactosylceramide was made using phosphatidylcholin and galactosylceramide. The control group was treated with phosphatidylcholin and PBS alone.

[2] = test system: human mononuclear cells (monocytes and T-cells); settings: compared to incubation with LPS and PHA without galactosylceramide; cited from earlier work

Substance: galactosylceramide
- mice that developed diabetes, two studies together ([1]; both studies pooled, 31 of 70 mice, PBS mice 57.4%): 44.3%
- time of diabetes development versus control mice ([1]; first study, pure form): occurred later than among the control mice
- mice that developed diabetes ([1]; first study, pure form in PBS, intrathymic injection at 3 weeks old, followed to 200 days of age, 17 of 37 mice, PBS control 56.8%): 45.9%
- IL-6 production [2]: increased
- TNF production [2]: increased
